Assay results reported in article PMC3781849 (Journal of Clinical Pharmacology, 2013).
“And” between values parts separate entries of the source, which are not always exact repeats. Equal entries are not always repeated. “Also recorded” adds a separate entry of the source. Where two headings read alike, the source gives them in different places.

Tests used:
[1] = earlier studies; cited from earlier work
[2] = rats; preclinical studies; cited from earlier work
[3] = monkeys; preclinical studies; cited from earlier work
[4] = cited from earlier work
[5] = single 45-mg oral dose of 14C-labeled ponatinib, healthy volunteers; cited from earlier work
[6] = system: cells expressing all BCR-ABL mutants tested, including the T315I gatekeeper mutant; settings: preclinical; includes T315I; cited from earlier work
[7] = Safety and tolerability in the ponatinib ± ketoconazole crossover study
[8] = for Cmax: geometric mean (%CV, n)
[9] = bosutinib + ketoconazole 400 mg once daily; cited from earlier work
[10] = dasatinib + ketoconazole 200 mg twice daily; cited from earlier work
[11] = nilotinib + ketoconazole 400 mg once daily; cited from earlier work
[12] = ponatinib alone, 2 of 23 subjects
[13] = ponatinib with ketoconazole, 2 of 23 subjects
[14] = ponatinib + ketoconazole vs ponatinib alone
[15] = ponatinib + ketoconazole vs ponatinib alone, from estimated mean ratio

Cc1ccc(C(=O)Nc2ccc(CN3CCNCC3)c(C(F)(F)F)c2)cc1C#Cc1cnc2cccnn12 [AP24567]
Potency, less potent than ponatinib [1]: 4 fold

Cc1ccc(C(=O)O)cc1C#Cc1cnc2cccnn12 [AP24600]
Pharmacological activity [1]: pharmacologically inactive

Cc1ccc(C(=O)Nc2ccc(CN3CCN(C)CC3)c(C(F)(F)F)c2)cc1C#Cc1cnc2cccnn12 [Ponatinib]
Absolute oral bioavailability [2]: 54% | Absolute oral bioavailability [3]: 20% | Steady-state trough plasma concentration ([4]; daily doses of 30 mg): > 40 nM | Accumulation of AUC from first dose to steady-state ([4]; once-daily ponatinib 45 mg): approximately 1.5 fold | Steady-state trough concentration, geometric mean ([4]; once-daily ponatinib 45 mg): 64 nM and 34.2 ng/mL | Dose proportionality of exposure (Cmax and AUC) ([4]; patients, initial dose and steady-state, doses 2 to 60 mg): approximately dose-proportional | Time of maximum plasma levels ([4]; patients, oral once-daily ponatinib, postdose): approximately 4 hours | Elimination half-life ([4]; ponatinib 45 mg, patients): approximately 22 hours | Relation to maximum tolerated dose ([4]; ponatinib 60 mg daily, phase 1 study): exceeded the maximum tolerated dose | Total radioactivity recovered in feces [5]: 87% | Total radioactivity recovered in urine [5]: 5% | Concentration sufficient to inhibit viability of cells expressing all BCR-ABL mutants tested and to suppress emergence of mutant clones [6]: 40 nM | Serious AEs ([7]; both regimens): no serious AEs | Subjects with at least one drug-related AE ([7]; both regimens): Nine | Vital sign, ECG, physical examination findings ([7]; both regimens): No treatment-related or clinically significant vital sign, ECG, or physical examination findings | Subjects with at least one treatment-emergent adverse event ([7]; of 23 subjects, both regimens, all mild): Eleven | Tolerability ([7]; ponatinib 15 mg, both alone and in combination with ketoconazole): generally well tolerated | Increased lipase (TEAE) [7, 12]: 8.7% | Somnolence (TEAE) [7, 12]: 8.7% | Headache (TEAE) [7, 13]: 8.7% | Somnolence (TEAE) [7, 13]: 8.7% | AUC(0-inf) ([8]; human, in vivo, 15 mg): 472 ng·h/mL | AUC(0-t) ([8]; human, in vivo, 15 mg): 414 ng·h/mL | half-life ([8]; human, in vivo, 15 mg): 35.3 h | Cmax ([8]; human, in vivo, 15 mg, Cmax, ponatinib 15 mg alone): 16.1 ng/mL | Tmax ([8]; human, in vivo, po, 15 mg): ~6 h | Cmax ([8]; ponatinib 15 mg + ketoconazole 400 mg daily): 23.6 (30.7, 22) ng/mL | Cmax ([8]; ponatinib 15 mg alone): 16.1 (36.0, 22) ng/mL | Effect of ketoconazole on t1/2 / terminal elimination [8, 14]: not essentially affected; also recorded: did not affect | Effect of ketoconazole on tmax [8, 14]: not affected; also recorded: did not affect | Increase in exposure, Cmax [8, 14]: 47% | Increase in exposure, AUC0–t [8, 15]: 70% | Increase in exposure, AUC0–∞ [8, 15]: 78% | Time at which mean plasma concentrations reached a maximum ([8]; single oral dose of 15 mg, independent of ketoconazole coadministration): 5 to 6 h

COc1cc(Nc2c(C#N)cnc3cc(OCCCN4CCN(C)CC4)c(OC)cc23)c(Cl)cc1Cl [bosutinib]
Decrease in apparent clearance [9]: 9 fold | Increase in AUC0–t [9]: 7.6 fold | Increase in AUC0–∞ [9]: 8.6 fold | Increase in Cmax [9]: 5.2 fold | Prolongation of t1/2 [9]: 22.8 h

Cc1nc(Nc2ncc(C(=O)Nc3c(C)cccc3Cl)s2)cc(N2CCN(CCO)CC2)n1 [dasatinib]
Increase in AUC [10]: 4.8 fold | Increase in Cmax [10]: 3.6 fold | Prolongation of t1/2 [10]: 5.4 h

Cc1cn(-c2cc(NC(=O)c3ccc(C)c(Nc4nccc(-c5cccnc5)n4)c3)cc(C(F)(F)F)c2)cn1 [nilotinib]
Decrease in apparent clearance [11]: 2.5 fold | Increase in AUC0–t [11]: 1.8 fold | Increase in AUC0–∞ [11]: 3 fold | Increase in t1/2 [11]: 17.5 h
